Here are results for eight compounds from patent publication US8283353B2, “Fused ring compound and use thereof” (Takeda Pharmaceutical Company Limited, priority 2009, dated 2012).

One test addresses T1, human AT1 receptor (Homo sapiens, UniProt P30556).
T1 construct: expressed in transfected cells; membrane fraction
T1 sequence (P30556 1-359): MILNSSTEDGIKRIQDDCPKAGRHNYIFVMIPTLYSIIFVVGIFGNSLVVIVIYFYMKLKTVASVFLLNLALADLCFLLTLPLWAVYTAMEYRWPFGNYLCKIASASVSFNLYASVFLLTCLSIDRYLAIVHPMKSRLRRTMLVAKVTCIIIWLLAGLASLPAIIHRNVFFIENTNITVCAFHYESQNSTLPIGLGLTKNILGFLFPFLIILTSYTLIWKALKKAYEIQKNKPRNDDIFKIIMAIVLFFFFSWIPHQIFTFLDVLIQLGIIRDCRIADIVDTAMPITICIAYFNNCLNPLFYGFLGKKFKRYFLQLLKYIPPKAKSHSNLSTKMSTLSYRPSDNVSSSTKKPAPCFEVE
Put plainly: AT1 receptor antagonistic activity: [125I]-angiotensin II binding assay on human AT1 receptor-expressing CHO-K1 cellular membrane fraction. Particulars: 22.5 pM [125I]-angiotensin II, 1 hr room temperature. In short, it runs like this: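 Competition binding used radiolabelled angiotensin II on stably transfected CHO-K1 membrane fractions in Tris pH 7.4/MgCl2 buffer, optionally containing 0.3 mg/mL fatty acid-free BSA, 1 hr at room temperature. Filtration onto GF/C separated bound tracer, and nonspecific binding was measured with candesartan.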

For another test, the target named is T2, human PPARγ (Homo sapiens, UniProt P37231).
T2 construct: expressed in transfected cells
T2 sequence (P37231 1-477 isoform P37231-2): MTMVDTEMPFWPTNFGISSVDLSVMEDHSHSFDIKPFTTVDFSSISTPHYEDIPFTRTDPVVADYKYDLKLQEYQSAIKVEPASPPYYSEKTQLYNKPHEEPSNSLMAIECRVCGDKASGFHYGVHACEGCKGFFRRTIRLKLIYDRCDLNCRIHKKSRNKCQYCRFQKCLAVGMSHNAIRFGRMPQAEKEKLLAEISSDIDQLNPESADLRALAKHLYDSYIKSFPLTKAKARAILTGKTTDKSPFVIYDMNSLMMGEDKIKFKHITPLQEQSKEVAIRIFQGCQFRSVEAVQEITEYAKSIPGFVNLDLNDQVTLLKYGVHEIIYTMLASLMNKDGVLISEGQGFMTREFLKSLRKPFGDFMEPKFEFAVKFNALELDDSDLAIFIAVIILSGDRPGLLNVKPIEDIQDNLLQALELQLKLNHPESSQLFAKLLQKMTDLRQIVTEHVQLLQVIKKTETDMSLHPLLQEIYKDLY
T2 sequence (P19793 1-462 partner): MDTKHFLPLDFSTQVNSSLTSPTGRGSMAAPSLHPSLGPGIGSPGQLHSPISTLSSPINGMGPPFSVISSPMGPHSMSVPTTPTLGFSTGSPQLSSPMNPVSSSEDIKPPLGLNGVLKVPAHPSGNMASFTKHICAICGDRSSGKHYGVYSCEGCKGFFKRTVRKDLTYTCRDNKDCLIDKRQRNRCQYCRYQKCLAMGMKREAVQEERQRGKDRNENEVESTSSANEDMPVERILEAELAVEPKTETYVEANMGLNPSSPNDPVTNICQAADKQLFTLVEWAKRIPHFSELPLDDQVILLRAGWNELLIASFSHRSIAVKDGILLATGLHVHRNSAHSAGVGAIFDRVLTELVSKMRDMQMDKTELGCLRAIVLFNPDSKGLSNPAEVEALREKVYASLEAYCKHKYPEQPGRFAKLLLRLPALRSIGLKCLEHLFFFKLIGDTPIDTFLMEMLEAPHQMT
Briefly: PPARγ agonistic activity: luciferase reporter assay in PPARγ:RXRα:4ERPP/CHO-K1 cells. The format is cell-based. As to conditions: CHO-K1, test compound 10^−6 M; luciferase activity of control compound X (1 μM) = 100%, non-administration group = 0%. An outline of the steps: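 CHO-K1 cells stably carrying hPPARγ/RXRα and a 4ERPP luciferase reporter, dosed with test compound for 1 day at 37 °C in Ham's F12 with 0.1% fatty acid-free BSA. Luciferase read by luminescence; activity given as % of 1 μM control compound X (100%) versus untreated (0%).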
For orientation: In a reporter assay the amount or activity of a reporter protein is the signal.

As usually defined, the IC50 is the point on the concentration scale where inhibition reaches its midpoint. Lower therefore signals higher potency.

As to `CCCCc1c(Cc2ccc(-c3ccccc3-c3noc(=O)[nH]3)cc2)c(=O)n([C@H]2CC[C@H](OCC(C)(C)O)CC2)c2ncnn12` [Example 232, 7-butyl-4-[trans-4-(2-hydroxy-2-methylpropoxy)cyclohexyl]-6-{[2′-(5-oxo-4,5-dihydro-1,2,4-oxadiazol-3-yl)biphenyl-4-yl]methyl}[1,2,4]triazolo[1,5-a]pyrimidin-5(4H)-one], the IC50 on human AT1 receptor was 2.1 nM. Besides, the activation at 1 µM on human PPARγ turned out to be 35%.

`CCCc1c(Cc2ccc(-c3ccccc3-c3noc(=O)[nH]3)cc2F)c(=O)n([C@H]2CC[C@H](OCC(C)(C)O)CC2)c2ncnn12` [Example 233, 6-{[3-fluoro-2′-(5-oxo-4,5-dihydro-1,2,4-oxadiazol-3-yl)biphenyl-4-yl]methyl}-4-[trans-4-(2-hydroxy-2-methylpropoxy)cyclohexyl]-7-propyl[1,2,4]triazolo[1,5-a]pyrimidin-5(4H)-one] gave an IC50 at human AT1 receptor of 1.9 nM. In addition, the activation at 1 µM at human PPARγ amounted to 26%.

For `CCCc1c(Cc2ccc(-c3ccccc3-c3noc(=O)[nH]3)cc2)c(=O)n([C@H]2CC[C@H](OC(C)C#N)CC2)c2ncnn12` (stereo partly drawn) [Example 244, 2-({trans-4-[5-oxo-6-{[2′-(5-oxo-4,5-dihydro-1,2,4-oxadiazol-3-yl)biphenyl-4-yl]methyl}-7-propyl[1,2,4]triazolo[1,5-a]pyrimidin-4(5H)-yl]cyclohexyl}oxy)propanenitrile], the concentration for half-maximal inhibition (IC50) on human AT1 receptor is 2.3 nM. The activation at 1 µM on human PPARγ was 29%.

The compound `CCCc1c(Cc2ccc(-c3ccccc3-c3noc(=O)[nH]3)cc2F)c(=O)n([C@H]2CC[C@H](OC(C)C#N)CC2)c2nc(C)nn12` (stereo partly drawn) [Example 249, 2-({trans-4-[6-{[3-fluoro-2′-(5-oxo-4,5-dihydro-1,2,4-oxadiazol-3-yl)biphenyl-4-yl]methyl}-2-methyl-5-oxo-7-propyl[1,2,4]triazolo[1,5-a]pyrimidin-4(5H)-yl]cyclohexyl}oxy)propanenitrile] yielded an IC50 at human AT1 receptor of 2.5 nM. At human PPARγ, this compound had an activation at 1 µM of 35%.

`CCCc1c(Cc2ccc(-c3ccccc3-c3noc(=O)[nH]3)cc2F)c(=O)n([C@H]2CC[C@H](OCC3(O)CCC3)CC2)c2ncnn12` [Example 252, 6-{[3-fluoro-2′-(5-oxo-4,5-dihydro-1,2,4-oxadiazol-3-yl)biphenyl-4-yl]methyl}-4-{trans-4-[(1-hydroxycyclobutyl)methoxy]cyclohexyl}-7-propyl[1,2,4]triazolo[1,5-a]pyrimidin-5(4H)-one]: the IC50 on human AT1 receptor was found to be 2.4 nM. Also, the activation at 1 µM at human PPARγ is 40%.

On human AT1 receptor, `CCCc1c(Cc2ccc(-c3ccccc3-c3noc(=O)[nH]3)cc2)c(=O)n([C@H]2C[C@H](OCC(O)(CC)CC)C2)c2ncnn12` [Example 259, 4-[trans-3-(2-ethyl-2-hydroxybutoxy)cyclobutyl]-6-{[2′-(5-oxo-4,5-dihydro-1,2,4-oxadiazol-3-yl)biphenyl-4-yl]methyl}-7-propyl[1,2,4]triazolo[1,5-a]pyrimidin-5(4H)-one] yielded an IC50 of 2.3 nM. Also, the activation at 1 µM on human PPARγ was 28%.

In the case of `CCCc1c(Cc2ccc(-c3ccccc3-c3noc(=O)[nH]3)cc2)c(=O)n(C2CCOCC2)c2ccnn12` [Example 269, 6-{[2′-(5-oxo-4,5-dihydro-1,2,4-oxadiazol-3-yl)biphenyl-4-yl]methyl}-7-propyl-4-(tetrahydro-2H-pyran-4-yl)pyrazolo[1,5-a]pyrimidin-5(4H)-one], the 50% inhibitory concentration (IC50) on human AT1 receptor turned out to be 2.2 nM. The activation at 1 µM on human PPARγ turned out to be 16%.

With `CCCc1c(Cc2ccc(-c3ccccc3-c3noc(=O)[nH]3)cc2)c(=O)n([C@H]2CC[C@H](Oc3ccc(OC)cc3)CC2)c2ncnn12` [Example 271, 4-[trans-4-(4-methoxyphenoxy)cyclohexyl]-6-{[2′-(5-oxo-4,5-dihydro-1,2,4-oxadiazol-3-yl)biphenyl-4-yl]methyl}-7-propyl[1,2,4]triazolo[1,5-a]pyrimidin-5(4H)-one], on human AT1 receptor, the IC50 came to 2.4 nM. The activation at 1 µM on human PPARγ was 43%.
